Experimental data reported in patent US20080090278A1, “METHOD FOR ENHANCING STABILITY OF A COMPOSITION COMPRISING SOLUBLE GLUCOSE DEHYDROGENASE (GDH)” (TOYO BOSEKI KABUSHIKI KAISHA, priority 2006, published 2008).

What was measured:
Format in all cases: physicochemical
[1] = tested on: recombinant FAD-GDH (rAO-FAD-GDH) derived from Aspergillus oryzae; experiment: Thermal stabilization effect of stabilizing agents on rAO-FAD-GDH in solution (Examples 3-6); conditions: for thermal stabilization effect on FAD-GDH (in words): rAO-FAD-GDH, 50° C. for 15 minutes, Example 3; for Residual activity ratio (%) after treatment at 50° C., 15 min: stabilizer final concentration 1%, rAO-FAD-GDH about 2 U/mL, 50 mM potassium phosphate buffer pH 5.5, 0.1% Triton X-100, 4° C. sample = 100; for GDH Residual activity ratio (%) after treatment at 50° C., 15 min: final concentration BSA 2.5%, serine 10%, alone or combined
Protocol: Enhancement of the thermal stability referred to herein means increasing of a residual ratio (%) of the GDH enzyme kept after giving the treatment with heat at a certain temperature for a certain time period to the composition comprising the GDH enzyme. In the present invention, the activity in the sample stored at 4° C. which is nearly completely kept is made 100%, this is compared with the activity in the GDH solution after giving the treatment with heat at a certain-temperature for a certain time period, and the residual ratio of the enzyme is calculated.
In the method for measuring the activity described in the method for measuring the GDH enzyme activity described later, an activity value (a) of GDH in the solution stored at 4° C. and an activity value (b) of GDH after giving the treatment with heat at a certain temperature for a certain time period were measured, a relative value[(b)/(a)×100] when the activity value (a) was made 100 was calculated. This relative value was made the residual ratio (%). Comparing the presence with the absence of the added compound, when the residual ratio was increased by the addition of the compound, it was determined that the thermal stability was enhanced.
In the present invention, the activity of FAD-dependent GDH is measured as follows.
The reaction-reagent is made by mixing 15.6 mL of the PIPES buffer, 0.2 mL of the DCPIP solution and 4 mL of the D-glucose solution.
(§1) The reaction reagent (3 mL) is preliminarily heated at 37° C. for 5 minutes. The GDH solution (0.1 mL) is added and gently mixed, subsequently the change of absorbance at 600 nm is recorded for 5 minutes using the spectrophotometer controlled to 37° C. using water as the control, and the change of absorbance per one minute (ΔODTEST) is calculated from the linear portion of the record. The solvent in which GDH will be dissolved in place of the blinded GDH solution is added to the reagent mixture, and the change of absorbance (ΔODBLANK) per one minute is measured. The GDH activity is calculated from these values according to the following formula. One unit (U) in the GDH activity is defined as the amount of the enzyme which reduces […] DCPIP for one minute in the presence of 200 mM D-glucose. Activity (U/mL)=[−(ΔODTEST−ΔODBLANK)×3.0×dilution scale]/(16.3×0.1×1.0) In the above formula, 3.0 represents a liquid amount (mL) of the reaction reagent+the enzyme solution, 16.3 represents a millimolar molecular absorbance coefficient (cm^2/μmol) in the condition for measuring this enzyme, 0.1 represents the liquid amount of the enzyme solution (mL) and 1.0 represents a light path length (cm) of the cell.
The study was performed in accordance with the method for measuring the FAD-GDH activity in Test Example 1 described above.
First, 50 mL of an enzyme solution obtained by dissolving the recombinant FAD-GDH (rAO-FAD-GDH)-derived from Aspergillus oryzae obtained in Example 1 at about 2 U/mL in an enzyme dilution solution (50 mM potassium phosphate buffer, pH 5.5, 0.1% Triton X-100) was prepared. Two tubes in which each stabilizing agent described in Table 1 had been added at each final concentration to 0.9 mL of this enzyme solution to make the total volume 1.0 mL were prepared.
(§2) In two tubes, one tube was stored at −4° C. and another tube was treated at 50° C. for 15 minutes. Then, the FAD-GDH activity in each tube was measured. The enzyme activity in the tube stored at 4° C. was made 100, and comparing with it, the activity value after being treated at 50° C. for 15 minutes was calculated as the residual activity ratio (%).
The method was in accordance with Example 3 described above.
The methods were in accordance with Example 3 above.

[2] = tested on: recombinant FAD-GDH (rAT-FAD-GDH) derived from Aspergillus terreus; experiment: Thermal stabilization effect of stabilizing agents on rAT-FAD-GDH in solution (Example 9); conditions: for Residual activity ratio (%) / GLD activity value (U/ml) 50° C., 15 min: Table 10, buffer 50 mM K-PB, stabilizer at each final concentration described in Table 1; for Residual activity ratio (%): 50° C., 15 min versus 4° C.; for thermal stabilization effect on FAD-GDH (in words): rAT-FAD-GDH, 50° C. for 15 minutes, Example 9
Protocol: as §1, with “D-glucose.” for “D-glucose. Activity (U/mL)=[−(ΔODTEST−ΔODBLANK)×3.0×dilution scale]/(16.3×0.1×1.0) In the above formula, 3.0 represents a liquid amount (mL) of the reaction reagent+the enzyme solution, 16.3 represents a millimolar molecular absorbance coefficient (cm^2/μmol) in the condition for measuring this enzyme, 0.1 represents the liquid amount of the enzyme solution (mL) and 1.0 represents a light path length (cm) of the cell.”
Two tubes in which each stabilizing agent described in Table 1 had been added at each final concentration to 0.9 mL of this enzyme solution to make the total volume 1.0 mL were prepared.
as §2, with “4°” for “−4°”

[3] = tested on: recombinant FAD-GDH (rAO-FAD-GDH) derived from Aspergillus oryzae; experiment: Thermal stabilization effect of stabilizing agents on rAO-FAD-GDH in solution (Examples 3-6)
[4] = tested on: recombinant FAD-GDH preparation (rAO-FAD-GDH) derived from Aspergillus oryzae; experiment: Storage stability of freeze-dried (powdered) rAO-FAD-GDH with stabilizing agents (Example 8); conditions: for storage stabilization effect on the powdered enzyme (in words): Example 8, Tables 7 and 8; for GDH activity Residual ratio (%): 70% humidity
Protocol: as §1
The study was performed using the recombinant FAD-GDH preparation (rAO-FAD-GDH) derived from Aspergillus oryzae obtained in Example 1 in accordance with the method for measuring the FAD-GDH activity in Test Example 1 above. The amount of the protein which occupied in the FAD-GDH enzyme solution was measured, and 1 mL of the solution in which the stabilizing agent corresponding to 60% or 30% relative to this had been dissolved therein was prepared.
Several vials in which 0.2 mL of the enzyme solution containing each stabilizing agent had been correctly dispensed were prepared. As the control, the vials in which the stabilizing agent had not been added was prepared. The prepared vials were subjected to vacuum freeze-dry (FDR) to completely evaporate the water. Then, only two samples in which the same stabilizing agent had been added were subjected to the measurement of the activity. Meanwhile, the remaining vials were treated at 25° C. at a humidity of 70% for several hours, and then stored at 37° C. for one week. Subsequently, the residual activity was measured. The residual activity ratio (%) was calculated by making the average activity immediately after FDR 100% and measuring the average activity of the samples after storing at 37° C.

[5] = Table 4, each stabilizer at final concentration 1%, alone or in pairs

SMILES | thermal stabilization effect on FAD-GDH (in words) [1] | Residual activity ratio (%) after treatment at 50° C., 15 min [1] | Residual activity ratio (%) [2] | GLD activity value (U/ml) 50° C., 15 min [2] | thermal stabilization effect on FAD-GDH (in words) [2] | GDH Residual activity ratio (%) after treatment at 50° C., 30 min [3, 5] | GDH Residual activity ratio (%) after treatment at 50° C., 15 min ([1]; Table 3) | GDH Residual activity ratio (%) after treatment at 50° C., 15 min ([1]; Table 3 second column) | storage stabilization effect on the powdered enzyme (in words) [4] | GDH activity (kU/vial) Immediately after pulverization ([4]; Table 7, stabilizer 60% relative to FAD-GDH protein, vacuum freeze-dry) | GDH activity Residual ratio (%) ([4]; Table 7, stabilizer 60%, 25° C., 24 h, then 37° C. for 1 week, activity immediately after FDR = 100%) | GDH activity (kU/vial) After 1 week at 37° C. ([4]; Table 7, stabilizer 60%, after treatment at 70% humidity, 25° C., 24 h, then 37° C. for 1 week) | GDH activity (U/vial) Immediately after pulverization ([4]; Table 8, stabilizer 60%) | GDH activity (U/vial) Immediately before pulverization ([4]; Table 8, stabilizer 60%) | GDH activity Residual ratio (%) ([4]; Table 8, stabilizer 60%, 25° C., 7 h, then 37° C. for 1 week) | GDH activity (U/vial) At 37° C. for 1 week ([4]; Table 8, stabilizer 60%, after treatment at 70% humidity, 25° C., 7 h, then 37° C. for 1 week) | GDH Residual activity ratio (%) after treatment at 50° C., 30 min ([3]; final concentration 0.01%) | GDH Residual activity ratio (%) after treatment at 50° C., 30 min ([3]; final concentration 0.1%) | GDH Residual activity ratio (%) after treatment at 50° C., 30 min ([3]; final concentration 1%) | thermal stabilization effect of trehalose (in words) ([3]; final concentration of 0.01%, 50° C., 30 min)
NCC(=O)O [Glycine] | high effect | 26.4% | 3.3% | 0.094 U/ml | high effect | 4.84% | – | – | – | – | – | – | – | – | – | – | – | – | – | –
N[C@@H](CO)C(=O)O [L-serine] | high effect | 27.0% | 3.0% | 0.078 U/ml | high effect | – | 33% | 11.5% | enhance the stability | 19.8 kU/vial | 41.3% | 8.2 kU/vial | – | – | – | – | – | – | – | –
O.O.OC[C@H]1O[C@H](O[C@H]2O[C@H](CO)[C@@H](O)[C@H](O)[C@H]2O)[C@H](O)[C@@H](O)[C@@H]1O [D-(+)-trehalosedihydrate] | high effect | 64.7% | 15.8% | 0.431 U/ml | high effect | 39.10% | – | – | enhance the stability | – | – | – | 401 U/vial | 397 U/vial | 48.6% | 195 U/vial | 11.2% | 20.4% | 42.3% | the stabilization effect was exerted
O=C[C@@H](O)[C@@H](O)[C@H](O)[C@H](O)CO [D-(+)-mannose] | high effect | 65.3% | 16.5% | 0.448 U/ml | high effect | 47.78% | – | – | – | – | – | – | – | – | – | – | – | – | – | –
